According to patent US7015246B2, “Benzofuran derivatives” (Bayer Aktiengesellschaft, priority 2001, dated 2006):

System: thyroid hormone-regulated promoter (TRE) luciferase in HepG2 hepatocarcinoma cell
Assay: T3 promoter assay cell test (luciferase reporter)
Assay type: cell-based
Conditions: Homo sapiens; stably transfected HepG2 cells, luciferase induction; one range stated for the listed examples together; read-out: effect in the T3 promoter assay cell test
Procedure: The activity of the compounds according to the invention can be tested, for example, in vitro using the T3 Promoter Assay Cell test, which is described below:
The test is carried out using a stably transfected human HepG2 hepatocarcinoma cell which expresses a luciferase gene under the control of a thyroid hormone-regulated promoter. The vector which is used for the transfection carries a minimal thymidine kinase promoter, containing a thyroid hormone-responsive element (TRE) which consists of two inverted palindromes of in each case 12 bp and an 8 bp spacer, upstream of the luciferase gene.
For the test, the cell cultures are sown, in Eagle's minimal essential medium containing the following additions: glutamine, tricine [N(tris-(hydroxymethyl)-methyl)glycine], sodium pyruvate, non essential amino acids, (L-Ala, L-Asn, L-Asp, L-Pro, L-Ser, L-Glu, Gly), insulin, selenium and transferrin, in 96-well plates. The cultures are grown for 48 hours at 37° C. and under a 10% CO2 atmosphere. After that, serial dilutions of test substance or reference compound (T3, T4) and costimulator retinoic acid are added to the test cultures and the latter are incubated for a further 48 or 72 hours as before. Each substance concentration is tested in four replicates. In order to determine the luciferase which is induced by T3 or other substances, the cells are then lyzed by adding a buffer containing Triton and luciferin (from Promega) and immediately measured luminometrically.

EC50, 0.5 to 240 nM:
Cc1cc2oc(C(=O)O)cc2c(C)c1Oc1ccc(O)c(C(C)C)c1 [Example 17, 5-(4-Hydroxy-3-isopropylphenoxy)-4,6-dimethyl-1-benzofuran-2-carboxylic acid]
CCOC(=O)Cc1coc2c(C)c(Oc3ccc(OC)c(C(C)C)c3)c(C)cc12 [Example 18, Ethyl 2-[6-(3-isopropyl-4-methoxyphenoxy)-5,7-dimethyl-1-benzofuran-3-yl]acetate]
CCOC(=O)CC1Cc2c(cc(C)c(Oc3ccc(O)c(C(C)C)c3)c2C)O1 (stereo not shown) [Example 28, Ethyl [5-(4-hydroxy-3-isopropylphenoxy)-4,6-dimethyl-2,3-dihydro-1-benzofuran-2-yl]acetate]
CCOC(=O)c1cc2c(Br)c(Oc3ccc(O)c(C(=O)c4ccc(F)cc4)c3)c(Br)cc2o1 [Example 32, Ethyl 4,6-dibromo-5-[3-(4-fluorobenzoyl)-4-hydroxyphenoxy]-1-benzofuran-2-carboxylate]
